Where two headings read alike, the source gives them in different places.
Assays:
OXPHOS gene expression = type: cell-based, mouse; details: for GE-HTS (composite Z-score): normalized score vs mock-treated (DMSO) wells
[1] = tested on: mitochondrial membrane potential; type: cell-based, mouse; details: for ΔΨm (composite Z-score): normalized score vs mock-treated (DMSO) wells
cytochrome c = type: cell-based, mouse; details: for cyt c (composite Z-score): normalized score vs mock-treated (DMSO) wells
C2C12 myotubes = details: for Viability (composite Z-score): normalized score vs mock-treated (DMSO) wells
reactive oxygen species = type: cell-based, mouse; details: for ROS (composite Z-score): normalized score vs mock-treated (DMSO) wells
mtOXPHOS transcripts = type: cell-based, mouse; details: for mitoOX (composite Z-score): normalized score vs mock-treated (DMSO) wells
nuOXPHOS transcripts = type: cell-based, mouse; details: for nucOX (composite Z-score): normalized score vs mock-treated (DMSO) wells
[2] = tested on: cellular dehydrogenase activity; details: for MTT (composite Z-score): normalized score vs mock-treated (DMSO) wells
[3] = normalized composite Z-score vs mock-treated (DMSO) wells, Conc 20 μM
[4] = composite Z-score vs DMSO, Conc 20 μM
[5] = 14.26 μM, composite Z-score vs DMSO
[6] = 20 μM, composite Z-score vs DMSO

| Structure (SMILES) | GE-HTS (OXPHOS gene expression; [4]) | ΔΨm [1, 4] | cyt c (cytochrome c; [4]) | Viability (C2C12 myotubes; [4]) | ROS (reactive oxygen species; [4]) | mitoOX (mtOXPHOS transcripts; [4]) | nucOX (nuOXPHOS transcripts; [4]) | MTT [2, 4] | GE-HTS (composite Z-score) (OXPHOS gene expression; Conc 20 μM) | ΔΨm (composite Z-score) ([1]; Conc 20 μM) | cyt c (composite Z-score) (cytochrome c; Conc 20 μM) | Viability (composite Z-score) (C2C12 myotubes; Conc 20 μM) | ROS (composite Z-score) (reactive oxygen species; Conc 20 μM) | mitoOX (composite Z-score) (mtOXPHOS transcripts; Conc 20 μM) | nucOX (composite Z-score) (nuOXPHOS transcripts; Conc 20 μM) | MTT (composite Z-score) ([2]; Conc 20 μM) | other results |
| --- | --- | --- | --- | --- | --- | --- | --- | --- | --- | --- | --- | --- | --- | --- | --- | --- | --- |
| COC(=O)c1c(C)c2c(c(C)c1OC)OC(=O)c1c(C)c(Cl)c(OC)c(Cl)c1O2 [leoidin dimethyl ether] | – | – | – | – | – | – | – | – | – | – | – | – | – | – | – | – | GE-HTS (OXPHOS gene expression; [3]): −1.008; ΔΨm [1, 3]: −0.320; cyt c (cytochrome c; [3]): 1.032; Viability (C2C12 myotubes; [3]): 0.677; ROS (reactive oxygen species; [3]): −0.121; mitoOX (mtOXPHOS transcripts; [3]): −1.691; nucOX (nuOXPHOS transcripts; [3]): −0.595; MTT [2, 3]: −0.726 |
| COC(=O)c1c(C)c2c(c(C)c1O)OC(=O)c1c(C)c(Cl)c(O)c(Cl)c1O2 [leoidin] | −0.611 | −1.352 | 0.341 | 0.035 | 1.481 | −0.638 | −0.523 | 0.994 | – | – | – | – | – | – | – | – | – |
| CC1=CC(=O)C2=C(C)CC[C@@H]3[C@H](OC(=O)[C@H]3C)[C@@H]12 [leucodin] | – | – | – | – | – | – | – | – | −0.300 | −0.355 | −0.301 | −0.525 | 0.695 | −0.261 | −0.270 | −1.134 | – |
| CC1=CC(=O)C2=C(C)CC[C@@H]3[C@H](OC(=O)[C@H]3C)[C@@H]12 [leucomisine] | – | – | – | – | – | – | – | – | – | – | – | – | – | – | – | – | GE-HTS (composite Z-score) (OXPHOS gene expression; Conc 16.24 μM): −0.450; ΔΨm (composite Z-score) ([1]; Conc 16.24 μM): 0.151; cyt c (composite Z-score) (cytochrome c; Conc 16.24 μM): −0.568; Viability (composite Z-score) (C2C12 myotubes; Conc 16.24 μM): −0.439; ROS (composite Z-score) (reactive oxygen species; Conc 16.24 μM): 0.368; mitoOX (composite Z-score) (mtOXPHOS transcripts; Conc 16.24 μM): −0.470; nucOX (composite Z-score) (nuOXPHOS transcripts; Conc 16.24 μM): −0.405; MTT (composite Z-score) ([2]; Conc 16.24 μM): −1.034 |
| CC1(C)O[C@H]2CC(=O)OC[C@]23[C@H]2CC[C@@]4(C)[C@H](c5ccoc5)OC(=O)[C@H]5O[C@]54[C@]2(C)C(=O)C[C@@H]13 [limonin] | −0.197 | −0.668 | 0.042 | −0.818 | 1.165 | 0.127 | −0.317 | −1.564 | – | – | – | – | – | – | – | – | – |
| CC(C)(C#N)O[C@@H]1O[C@H](CO)[C@@H](O)[C@H](O)[C@H]1O [linamarin] | – | – | – | – | – | – | – | – | −1.024 | −0.333 | −0.052 | 0.796 | −0.189 | −1.232 | −0.847 | −1.611 | – |
| CCCCCc1c2c(cc(O)c1C(=O)O)OC(=O)c1c(cc(OC)cc1C(=O)CCCC)O2 [lobaric acid] | −0.455 | −0.164 | −0.020 | 0.082 | 0.860 | −0.343 | −0.499 | −0.427 | – | – | – | – | – | – | – | – | – |
| C[C@@H]1[C@H]2[C@H](O[C@@H]3O[C@H](CO)[C@@H](O)[C@H](O)[C@H]3O)OC=C(C(=O)O)[C@H]2C[C@@H]1O [loganic acid] | – | – | – | – | – | – | – | – | −0.463 | −0.193 | −0.485 | 1.214 | −0.346 | −0.800 | −0.274 | −0.538 | – |
| O=C1CC[C@]23/C=C/C(=O)NCCCCNCCCNC(=O)/C=C/c4ccc(c2c4)O[C@@H]3C1 [lunarine] | −0.945 | −0.795 | 0.685 | −0.579 | 0.385 | −0.856 | −0.880 | −0.938 | – | – | – | – | – | – | – | – | – |
| C[C@@H]1C[C@H]2CC(=O)[C@H]3CCCN4CCC[C@H]2[C@]34C1 [lycopodine] | −0.150 | −0.239 | −0.093 | −0.466 | 0.500 | −0.411 | −0.028 | −1.139 | – | – | – | – | – | – | – | – | – |
| Oc1ccc2c(c1)OC[C@H]1c3cc4c(cc3O[C@@H]21)OCO4 [maackiain] | – | – | – | – | – | – | – | – | −0.561 | 0.391 | 0.969 | −1.052 | 0.879 | −1.049 | −0.285 | −0.578 | – |
| CCN(CC)CCNC(=O)COc1ccc(OC)cc1 [mefexamide] | – | – | – | – | – | – | – | – | – | – | – | – | – | – | – | – | GE-HTS (OXPHOS gene expression; [5]): −0.340; GE-HTS (OXPHOS gene expression; [6]): −0.215; ΔΨm [1, 5]: −0.719; ΔΨm [1, 6]: −0.643; cyt c (cytochrome c; [5]): 0.129; cyt c (cytochrome c; [6]): −0.257; Viability (C2C12 myotubes; [5]): −0.541; Viability (C2C12 myotubes; [6]): −2.120; ROS (reactive oxygen species; [5]): 1.172; ROS (reactive oxygen species; [6]): 0.837; mitoOX (mtOXPHOS transcripts; [5]): 0.009; mitoOX (mtOXPHOS transcripts; [6]): −0.101; nucOX (nuOXPHOS transcripts; [5]): −0.498; nucOX (nuOXPHOS transcripts; [6]): −0.253; MTT [2, 5]: −1.363; MTT [2, 6]: −1.270 |

Reference: patent publication US20090143279A1 (priority 2007, published 2009)
